The assay addresses T1, Mct (mesaconyl-CoA transferase; mesaconyl-C1:C4-CoA CoA transferase) (Chloroflexus aurantiacus, UniProt A9WC36).
T1 construct: intertwined homodimer
T1 sequence (A9WC36 1-409): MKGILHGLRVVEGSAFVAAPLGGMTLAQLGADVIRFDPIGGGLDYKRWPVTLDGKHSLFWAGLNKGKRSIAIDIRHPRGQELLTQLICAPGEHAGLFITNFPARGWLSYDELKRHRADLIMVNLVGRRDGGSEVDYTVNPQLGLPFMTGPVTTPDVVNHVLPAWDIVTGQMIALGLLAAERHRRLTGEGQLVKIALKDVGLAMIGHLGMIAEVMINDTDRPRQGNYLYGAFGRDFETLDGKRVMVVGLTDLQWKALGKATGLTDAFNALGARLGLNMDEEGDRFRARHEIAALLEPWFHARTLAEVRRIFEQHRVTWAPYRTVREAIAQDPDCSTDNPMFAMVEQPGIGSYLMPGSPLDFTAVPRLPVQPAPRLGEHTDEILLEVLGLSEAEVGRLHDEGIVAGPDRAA
Put plainly: HPLC-MS of succinyl-CoA formation. The class given is biochemical. The conditions noted are these: alternative CoA acceptor (side activity); co-substrate 1 mM mesaconyl-C4-CoA; 200 mM HEPES/KOH pH 8.0, 55 °C, 6 μM Mct; read-out: apparent KM.

Structures are written as SMILES. Where only a bound is given, the exact number is not on record here.

What is called Km is the substrate concentration at which the rate is half of its maximum. As to `O=C(O)CCC(=O)O` [succinate], the Km was > 25 mM.

The values are drawn from paper PMC9813914, “Structural Basis for a Cork-Up Mechanism of the Intra-Molecular Mesaconyl-CoA Transferase” (Biochemistry, 2022).
